Measurements reported in ChEMBL document CHEMBL1124217, “2,4-Diamino-5-benzylpyrimidines and analogues as antibacterial agents. 9. Lipophilic trimethoprim analogues as antigonococcal agents” (J Med Chem, 1988).
Values after ≈ are worked out from the molar mass of the structure shown.

Tests used:
Rattus norvegicus [1] = test: Conc in kidney of male rat 3h after administration of dose; type: functional, organism-based
Rattus norvegicus [2] = test: Conc in kidney of male rat 2 hr after administration of dose; type: functional, organism-based
Rattus norvegicus [3] = test: Conc in kidney of male rat 4 hr after administration of dose; type: functional, organism-based
Rattus norvegicus [4] = test: Conc in muscle of male rat 24 hr after administration of dose; type: functional, organism-based; settings: Muscle tissue
Rattus norvegicus [5] = test: Conc in stomach of male rat 1 hr after administration of dose; type: functional, organism-based
Rattus norvegicus [6] = test: Conc in liver of male rat 0.50 hr after administration of dose; type: functional, organism-based
Rattus norvegicus [7] = test: Conc in brain of male rat 2 hr after administration of dose; type: functional, organism-based
Klebsiella pneumoniae = test: Inhibition of growth of Klebsiella pneumoniae (CN3632) measured as MIC compound/MIC Trimethoprim; type: functional
Rattus norvegicus [8] = test: Conc in ovary of female rat 0.50 hr after administration of dose; type: functional, organism-based; settings: Female gonad
Rattus norvegicus [9] = test: Conc in brain of male rat 24 hr after administration of dose; type: functional, organism-based
Rattus norvegicus [10] = test: Conc in testes of male rat 0.25 hr after administration of dose; type: functional, organism-based; settings: Testis
Rattus norvegicus [11] = test: Conc in serum of male rat 1.5h after administration of dose; type: functional, organism-based
Rattus norvegicus [12] = test: Conc in lung of male rat 0.75h after administration of dose; type: functional, organism-based
Rattus norvegicus [13] = test: Conc in testes of male rat 1.5h after administration of dose; type: functional, organism-based; settings: Testis
Rattus norvegicus [14] = test: Conc in ovary of female rat 3h after administration of dose; type: functional, organism-based; settings: Female gonad
Rattus norvegicus [15] = test: Conc in ovary of female rat 1 hr after administration of dose; type: functional, organism-based; settings: Female gonad
Rattus norvegicus [16] = test: Conc in serum of male rat 0.75h after administration of dose; type: functional, organism-based
Rattus norvegicus [17] = test: Conc in intestine of male rat 24 hr after administration of dose; type: functional, organism-based
Rattus norvegicus [18] = test: Conc in lung of male rat 6 hr after administration of dose; type: functional, organism-based
Rattus norvegicus [19] = test: Conc in muscle of male rat 1.5h after administration of dose; type: functional, organism-based; settings: Muscle tissue
Rattus norvegicus [20] = test: Conc in intestine of male rat 1.5h after administration of dose; type: functional, organism-based
Rattus norvegicus [21] = test: Conc in testes of male rat 6 hr after administration of dose; type: functional, organism-based; settings: Testis
Rattus norvegicus [22] = test: Conc in liver of male rat after 0.25 hr administration of dose; type: functional, organism-based
Rattus norvegicus [23] = test: Conc in ovary of female rat 4 hr after administration of dose; type: functional, organism-based; settings: Female gonad
Rattus norvegicus [24] = test: Conc in testes of male rat 10h after administration of dose; type: functional, organism-based; settings: Testis
Rattus norvegicus [25] = test: Conc in serum of female rat 4 hr after administration of dose; type: functional, organism-based
Rattus norvegicus [26] = test: Conc in liver of male rat 1.5h after administration of dose; type: functional, organism-based
Proteus vulgaris = test: Inhibition of growth of Proteus vulgaris (CN329) measured as MIC compound/MIC Trimethoprim; type: functional
Rattus norvegicus [27] = test: Conc in testes of male rat 0.50 hr after administration of dose; type: functional, organism-based; settings: Testis
Rattus norvegicus [28] = test: Conc in kidney of male rat 6 hr after administration of dose; type: functional, organism-based
Rattus norvegicus [29] = test: Conc in serum of female rat 0.25 hr after administration of dose; type: functional, organism-based
Rattus norvegicus [30] = test: Conc in brain of male rat 0.25 hr after administration of dose; type: functional, organism-based
Rattus norvegicus [31] = test: Conc in lung of male rat 10h after administration of dose; type: functional, organism-based
Rattus norvegicus [32] = test: Conc in testes of male rat 24 hr after administration of dose; type: functional, organism-based; settings: Testis
Neisseria gonorrhoeae = test: Inhibition of growth of Neisseria gonorrhoeae; type: functional
Rattus norvegicus [33] = test: Conc in serum of male rat 2 hr after administration of dose; type: functional, organism-based
Rattus norvegicus [34] = test: Conc in intestine of male rat 0.25 hr after administration of dose; type: functional, organism-based
Rattus norvegicus [35] = test: Conc in kidney of male rat 1 hr after administration of dose; type: functional, organism-based
Rattus norvegicus [36] = test: Conc in serum of female rat 6 hr after administration of dose; type: functional, organism-based
Rattus norvegicus [37] = test: Conc in serum of female rat 3h after administration of dose; type: functional, organism-based
Rattus norvegicus [38] = test: Conc in stomach of male rat 2 hr after administration of dose; type: functional, organism-based
Rattus norvegicus [39] = test: Conc in intestine of male rat 0.75h after administration of dose; type: functional, organism-based
Rattus norvegicus [40] = test: Conc in ovary of female rat 1.5h after administration of dose; type: functional, organism-based; settings: Female gonad
Rattus norvegicus [41] = test: Conc in muscle of male rat 1 hr after administration of dose; type: functional, organism-based; settings: Muscle tissue
Rattus norvegicus [42] = test: Conc in lung of male rat 1.5h after administration of dose; type: functional, organism-based
Rattus norvegicus [43] = test: Conc in stomach of male rat 1.5h after administration of dose; type: functional, organism-based
Rattus norvegicus [44] = test: Conc in brain of male rat 6 hr after administration of dose; type: functional, organism-based
Dihydrofolate reductase = target: T1, Dihydrofolate reductase (Rattus norvegicus, UniProt Q920D2); test: Inhibition of Rat liver Dihydrofolate reductase(DHFR); settings: read-out: I50
T1 sequence (Q920D2 whole entry): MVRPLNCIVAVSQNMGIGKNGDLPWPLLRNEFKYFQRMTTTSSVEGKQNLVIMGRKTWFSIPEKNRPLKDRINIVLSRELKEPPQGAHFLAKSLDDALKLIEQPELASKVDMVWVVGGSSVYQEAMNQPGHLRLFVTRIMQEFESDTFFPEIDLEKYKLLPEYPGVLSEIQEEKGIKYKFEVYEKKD

Rattus norvegicus [45] = test: Conc in liver of male rat 6 hr after administration of dose; type: functional, organism-based
Rattus norvegicus [46] = test: Conc in serum of female rat 0.75h after administration of dose; type: functional, organism-based
Rattus norvegicus [47] = test: Conc in serum of male rat 1 hr after administration of dose; type: functional, organism-based
Rattus norvegicus [48] = test: Conc in ovary of female rat 6 hr after administration of dose; type: functional, organism-based; settings: Female gonad
Rattus norvegicus [49] = test: Conc in brain of male rat 1 hr after administration of dose; type: functional, organism-based
Rattus norvegicus [50] = test: Conc in stomach of male rat 0.25 hr after administration of dose; type: functional, organism-based
Rattus norvegicus [51] = test: Conc in serum of male rat 6 hr after administration of dose; type: functional, organism-based
Rattus norvegicus [52] = test: Conc in serum of male rat 24 hr after administration of dose; type: functional, organism-based
Rattus norvegicus [53] = test: Conc in serum of female rat 24 hr after administration of dose; type: functional, organism-based
Rattus norvegicus [54] = test: Conc in stomach of male rat 10h after administration of dose; type: functional, organism-based
Rattus norvegicus [55] = test: Conc in lung of male rat after 0.25 hr administration of dose; type: functional, organism-based
Rattus norvegicus [56] = test: Conc in testes of male rat 4 hr after administration of dose; type: functional, organism-based; settings: Testis
Rattus norvegicus [57] = test: Conc in kidney of male rat 1.5h after administration of dose; type: functional, organism-based
Rattus norvegicus [58] = test: Conc in stomach of male rat 3h after administration of dose; type: functional, organism-based
Rattus norvegicus [59] = test: Conc in muscle of male rat 0.50 hr after administration of dose; type: functional, organism-based; settings: Muscle tissue
Klebsiella aerogenes = test: Inhibition of growth of Enterobacter aerogenes (2200/186) measured as MIC(compound/MIC Trimethoprim; type: functional
Rattus norvegicus [60] = test: Conc in brain of male rat 0.75h after administration of dose; type: functional, organism-based
Rattus norvegicus [61] = test: Conc in serum of female rat 1 hr after administration of dose; type: functional, organism-based
Rattus norvegicus [62] = test: Conc in serum of female rat 10h after administration of dose; type: functional, organism-based
Rattus norvegicus [63] = test: Conc in kidney of male rat after 0.75h administration of dose; type: functional, organism-based
Rattus norvegicus [64] = test: Conc in serum of male rat 4 hr after administration of dose; type: functional, organism-based
Rattus norvegicus [65] = test: Conc in intestine of male rat 1 hr after administration of dose; type: functional, organism-based

SMILES: CC(C)c1cc(Cc2cnc(N)nc2N)cc(C(C)C)c1O
- Concentration (Rattus norvegicus [1]): 4.11 µg/g
- Concentration (Rattus norvegicus [2]): 4.08 µg/g
- Concentration (Rattus norvegicus [3]): 2.07 µg/g
- Concentration (Rattus norvegicus [4]): 0.04 µg/g
- Concentration (Rattus norvegicus [5]): 47 µg/g
- Concentration (Rattus norvegicus [6]): 29.9 µg/g
- Concentration (Rattus norvegicus [7]): 0.43 µg/g
- MIC ratio (Klebsiella pneumoniae): 300
- Concentration (Rattus norvegicus [8]): 4.06 µg/g
- Concentration (Rattus norvegicus [9]): 0.004 µg/g
- Concentration (Rattus norvegicus [10]): 1.34 µg/g
- Concentration (Rattus norvegicus [11]): 0.8 µg/g
- Concentration (Rattus norvegicus [12]): 11.3 µg/g
- Concentration (Rattus norvegicus [13]): 1.52 µg/g
- Concentration (Rattus norvegicus [14]): 2.06 µg/g
- Concentration (Rattus norvegicus [15]): 3.33 µg/g
- Concentration (Rattus norvegicus [16]): 1.13 µg/g
- Concentration (Rattus norvegicus [17]): 0.85 µg/g
- Concentration (Rattus norvegicus [18]): 0.52 µg/g
- Concentration (Rattus norvegicus [19]): 1.84 µg/g
- Concentration (Rattus norvegicus [20]): 14.9 µg/g
- Concentration (Rattus norvegicus [21]): 0.41 µg/g
- Concentration (Rattus norvegicus [22]): 17.4 µg/g
- Concentration (Rattus norvegicus [23]): 1.55 µg/g
- Concentration (Rattus norvegicus [24]): 0.66 µg/g
- Concentration (Rattus norvegicus [25]): 0.53 µg/g
- Concentration (Rattus norvegicus [26]): 13.5 µg/g
- MIC ratio (Proteus vulgaris): 300
- Concentration (Rattus norvegicus [27]): 1.07 µg/g
- Concentration (Rattus norvegicus [28]): 1.55 µg/g
- Concentration (Rattus norvegicus [29]): 0.49 µg/g
- Concentration (Rattus norvegicus [30]): 0.13 µg/g
- Concentration (Rattus norvegicus [31]): 0.4 µg/g
- Concentration (Rattus norvegicus [32]): 0.15 µg/g
- MIC (Neisseria gonorrhoeae): 9.2 µM (≈ 2.76 µg/mL)
- Concentration (Rattus norvegicus [33]): 0.49 µg/g
- Concentration (Rattus norvegicus [34]): 158 µg/g
- Concentration (Rattus norvegicus [35]): 7.78 µg/g
- Concentration (Rattus norvegicus [36]): 0.34 µg/g
- Concentration (Rattus norvegicus [37]): 0.61 µg/g
- Concentration (Rattus norvegicus [38]): 46.1 µg/g
- Concentration (Rattus norvegicus [39]): 112 µg/g
- Concentration (Rattus norvegicus [40]): 4.5 µg/g
- Concentration (Rattus norvegicus [41]): 2.36 µg/g
- Concentration (Rattus norvegicus [42]): 7.17 µg/g
- Concentration (Rattus norvegicus [43]): 97.1 µg/g
- Concentration (Rattus norvegicus [44]): 0.05 µg/g
- IC50 (Dihydrofolate reductase): 7.2 µM
- Concentration (Rattus norvegicus [45]): 5.14 µg/g
- Concentration (Rattus norvegicus [46]): 1.44 µg/g
- Concentration (Rattus norvegicus [47]): 0.92 µg/g
- Concentration (Rattus norvegicus [48]): 0.71 µg/g
- Concentration (Rattus norvegicus [49]): 0.91 µg/g
- Concentration (Rattus norvegicus [50]): 387 µg/g
- Concentration (Rattus norvegicus [51]): 0.27 µg/g
- Concentration (Rattus norvegicus [52]): 0.08 µg/g
- Concentration (Rattus norvegicus [53]): 0.14 µg/g
- Concentration (Rattus norvegicus [54]): 2 µg/g
- Concentration (Rattus norvegicus [55]): 2.52 µg/g
- Concentration (Rattus norvegicus [56]): 1.01 µg/g
- Concentration (Rattus norvegicus [57]): 6.74 µg/g
- Concentration (Rattus norvegicus [58]): 8.92 µg/g
- Concentration (Rattus norvegicus [59]): 1.45 µg/g
- MIC ratio (Klebsiella aerogenes): 100
- Concentration (Rattus norvegicus [60]): 1.01 µg/g
- Concentration (Rattus norvegicus [61]): 1.09 µg/g
- Concentration (Rattus norvegicus [62]): 0.16 µg/g
- Concentration (Rattus norvegicus [63]): 10.3 µg/g
- Concentration (Rattus norvegicus [64]): 0.42 µg/g
- Concentration (Rattus norvegicus [65]): 26 µg/g
